According to patent US7226924B2, “Substituted 3,4-dihydro-pyrimido[1,2a]pyrimidines and 3,4-dihydro-pyrazino[1,2a]pyrimidines, and methods for their preparation and use” (priority 2000, dated 2007):

Assays:
NMDA/MK801-binding site = NMDA/MK801-binding site inhibition; set-up: dose or concentration left out as unconfirmed
Description: (§1) Compounds according to the invention were investigated with respect to their pharmacological properties using methods described by J. P. Devlin in “High throughput screening—the discovery of bioactive substances,” Marcel Dekker, New York, 1997, pages 275 to 453.

μ-opiate receptor = μ-opiate receptor (Homo sapiens, UniProt P35372); assay: μ-opiate receptor binding; conditions: read-out: Ki Value of the μ-opiate Receptor Bond
Description: as §1

μ-opiate receptor, sequence (P35372 whole entry, species assumed): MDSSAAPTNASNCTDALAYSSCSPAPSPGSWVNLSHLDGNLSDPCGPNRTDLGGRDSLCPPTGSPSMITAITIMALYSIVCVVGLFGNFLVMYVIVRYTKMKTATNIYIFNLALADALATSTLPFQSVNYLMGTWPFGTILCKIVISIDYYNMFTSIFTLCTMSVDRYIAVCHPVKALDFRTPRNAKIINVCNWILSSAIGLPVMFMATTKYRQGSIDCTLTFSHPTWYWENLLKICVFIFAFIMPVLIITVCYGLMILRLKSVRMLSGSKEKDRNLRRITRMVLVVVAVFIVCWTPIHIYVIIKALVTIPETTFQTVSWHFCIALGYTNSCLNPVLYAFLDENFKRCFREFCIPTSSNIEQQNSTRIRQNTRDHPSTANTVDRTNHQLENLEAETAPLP

Compound	% inhibition of NMDA/MK801-binding site (NMDA/MK801-binding site) [%]	Ki (μ-opiate receptor) [nM]
NC(=O)C1=NC(Cl)=C(N)N2C1=NC(c1ccccn1)CC2Sc1ccccc1 (centres unmarked) [Example 51, 6-Amino-7-chlor-4-phenylsulphanyl-2-pyridin-2--yl-3,4-dihydro-2H-pyrazino[1,2a]pyrimidin-9--carboxylic acid amide]	40	1400
N#CC1=NC(c2ccccc2)=CN2C1=NC(c1ccccn1)CC2Sc1ccccc1 (centres unmarked) [Example 52, 7-phenyl-4-phenylsulphanyl-2-pyridin-2-yl-3,4--dihydro-2H-pyrazino[1,2a]pyrimidine-9--carbonitrile]	47	1400
BrC1=CN2C(=NC(c3ccccn3)CC2Sc2ccccc2)N=C1 (centres unmarked) [Example 53, 7-bromo-4-phenylsulphanyl-2-pyridin-2-yl-3,4--dihydro-2H-pyrimido[1,2a]pyrimidine]	44	2500
BrC1=CN2C(=NC(c3ccccn3)C3CCC=CC32)N=C1 (centres unmarked) [Example 62, 3-bromo-9-pyridin-2-yl-7,8,84,9-tetrahydro--4bH-1,44,10-triaza-phenanthrene]	40	
OC1=CC(O)=NC2=NC(c3ccccn3)C3C4C=CC(C4)C3N12 (centres unmarked) [Example 61, 5,8-methano-9-pyridin-2-yl-5,8,84,9-tetrahydro--4bH-1,4a,10-triaza-phenanthrene-2,4-diol]	40	
